The compounds below were run on PARP PARylation in HeLa cells (assay: PARylation assay in HeLa cells). Details: H2O2-provoked DNA damage.
Format: cell-based
“2-phenyl-2,3,5,10- tetrahydro- [1,2]diazepino[3,4, 5,6-def]carbazol- 6(1H)-one [Compound 5]” showed an EC50 of 10.1 nM. Work on `CN(C)c1ccc(C2CC3=NNC(=O)c4cc(F)cc5[nH]c(c3c45)C2)cc1` (stereo not drawn) [Compound 12, 2-(4-(dimethylamino)phe-nyl)-8-fluoro-2,3,5,10-tetrahydro-[1,2]diazepino[3,4,5,6-def]carbazol-6(1H)-one] yielded an EC50 of 26.6 nM.

Same assay, conditions: Homo sapiens, H2O2-provoked DNA damage
`CC1CC2=NNC(=O)c3cccc4[nH]c(c2c34)C1` (stereo not drawn) [Compound 3, 2-methyl-2,3,5,10-tetrahydro-[1,2]diazepino[3,4,5,6-def]carbazol-6(1H)-one] gave an EC50 of 4.6 nM. `CC1(C)CCc2[nH]c3cccc4c3c2C1=NNC4=O` [Compound 4, 3,3-dimethyl-2,3,5,10-tetrahydro-[1,2]diazepino[3,4,5,6-def]carbazol-6(1H)-one] gave an EC50 of 46.7 nM. `CC(C)C1CC2=NNC(=O)c3cccc4[nH]c(c2c34)C1` (stereo not drawn) [Compound 6, 2-isopropyl-2,3,5,10-tetrahydro-[1,2]diazepino[3,4,5,6-def]carbazol-6(1H)-one] gave an EC50 of 3.9 nM. `CN(C)c1ccc(C2CC3=NNC(=O)c4cccc5[nH]c(c3c45)C2)cc1` (stereo not drawn) [Compound 13, 2-(4-(dimethylamino)phe-nyl)-2,3,5,10-tetrahydro-[1,2]diazepino[3,4,5,6-def]carbazol-6(1H)-one] showed an EC50 of 77.6 nM. For `O=C1NN=C2CN(C(=O)OCc3ccccc3)Cc3[nH]c4cccc1c4c32` [Compound 20, Benzyl 8-oxo-3,4,8,9-tetrahydro-2,4,9,10-tetraazacyclohepta[def]fluorene-2(1H)-carboxylate], the EC50 was 7.3 nM. `O=C1NN=C2CN(C(=O)OCc3ccccc3)Cc3[nH]c4cc(F)cc1c4c32` [Compound 21, Benzyl 6-fluoro-8-oxo-3,4,8,9-tetrahydro-2,4,9,10-tetraazacyclohepta[def]fluorene-2(1H)-carboxylate] was tested, and the EC50 was 14 nM. `CN1N=C2CC(C)(C)Cc3c2c2c(cccc2n3C)C1=O` [Compound 25, 2,2,5,10-tetramethyl-2,3,5,10-tetrahydro-[1,2]diazepino[3,4,5,6-def]carbazol-6(1H)-one] was tested, and the EC50 was > 1000 nM. With `CC1(C)CC2=NNC(=O)c3cc(F)cc4[nH]c(c2c34)C1=O` [Compound 26, 8-Fluoro-2,2-dimethyl-2,3-dihydro-[1,2]diazepino[3,4,5,6-def]carbazole-1,6(5H,10H)-dione] the EC50 was 4.5 nM. For `CN(C)CCn1c2c3c4c(cccc41)C(=O)NN=C3CCC2` [Compound 37, 10-(2-(dimethylamino)ethyl)-2,3,5,10-tetrahydro-[1,2]diazepino[3,4,5,6-def]carbazol-6(1H)-one], the EC50 was 22 nM. `CN1CC2=NNC(=O)c3cccc4[nH]c(c2c34)C1` [Compound 44, 2-Methyl-2,3,4,9-tetrahydro-2,4,9,10-tetraazacyclohepta[def]fluoren-8(1H)-one] showed an EC50 of 24 nM. `CC(C)N1CC2=NNC(=O)c3cccc4[nH]c(c2c34)C1` [Compound 45, 2-Isopropyl-2,3,4,9-tetrahydro-2,4,9,10-tetraazacyclohepta[def]fluoren-8(1H)-one] was tested, and the EC50 was 3.8 nM. For `O=C1NN=C2CN(C(=O)C3CC3)Cc3[nH]c4cccc1c4c32` [Compound 47, 2-(cyclopropanecarbonyl)-2,3,4,9-tetrahydro-2,4,9,10-tetraazacyclohepta[def]fluoren-8(1H)-one], the EC50 was 6.9 nM. In the case of `CN(C)CCn1c2c3c4c(cccc41)C(=O)NN=C3CN(C(=O)C1CC1)C2` [Compound 48, 2-(cyclopropanecarbonyl)-4-(2-(dimethylamino)ethyl)-2,3,4,9-tetrahydro-2,4,9,10-tetraazacyclohepta[def]fluoren-8(1H)-one], the EC50 is reported as 6 nM. Compound `CN(C)CCn1c2c3c4c(cc(F)cc41)C(=O)NN=C3CN(C(=O)C1CC1)C2` [Compound 50, 2-(Cyclopropanecarbonyl)-4-(2-(dimethylamino)ethyl)-6-fluoro-2,3,4,9-tetrahydro-2,4,9,10-tetraazacyclohepta[def]fluoren-8(1H)-one] has an EC50 of 21 nM. Compound `CC(C)(C)C(=O)N1CC2=NNC(=O)c3cccc4[nH]c(c2c34)C1` [Compound 51, 2-Pivaloyl-2,3,4,9-tetrahydro-2,4,9,10-tetraazacyclohepta[def]fluoren-8(1H)-one] has an EC50 of 9.6 nM. In the case of `CC(C)(C)C(=O)N1CC2=NNC(=O)c3cc(F)cc4[nH]c(c2c34)C1` [Compound 52, 6-Fluoro-2-pivaloyl-2,3,4,9-tetrahydro-2,4,9,10-tetraazacyclohepta[def]fluoren-8(1H)-one], the EC50 is reported as 13.5 nM. For `O=C1NN=C2CN(C3CCCCC3)Cc3[nH]c4cccc1c4c32` [Compound 53, 2-Cyclohexyl-2,3,4,9-tetrahydro-2,4,9, 10-tetraazacyclohepta[def]fluoren-8(1H)-one], the EC50 was 20 nM. For `CC(C)(C)CCN1CC2=NNC(=O)c3cccc4[nH]c(c2c34)C1` [Compound 54, 2-(3,3-dimethylbutyl)-2,3,4,9-tetrahydro-2,4,9,10-tetraazayclohepta[def]fluoren-8(1H)-one], the EC50 was 23 nM. In the case of `CCCN1CC2=NNC(=O)c3cccc4[nH]c(c2c34)C1` [Compound 56, 2-Propyl-2,3,4,9-tetrahydro-2,4,9,10-tetraazacyclohepta[def]fluoren-8(1H)-one], the EC50 is reported as 6.4 nM. Compound `CCCCN1CC2=NNC(=O)c3cc(F)cc4[nH]c(c2c34)C1` [Compound 59, 2-Butyl-6-fluoro-2,3,4,9-tetrahydro-2,4,9,10-tetraazacyclohepta[def]fluoren-8(1H)-one] has an EC50 of 2 nM. With `CN(C)CCN1CC2=NNC(=O)c3cccc4[nH]c(c2c34)C1` [Compound 60, 2-(2-(dimethylamino)ethyl)-2,3,4,9-tetrahydro-2,4,9,10-tetraazacyclohepta[def]fluoren-8(1H)-one] the EC50 was 68.5 nM. In the case of `CN(C)CCN1CC2=NNC(=O)c3cc(F)cc4[nH]c(c2c34)C1` [Compound 61, 2-(2-(Dimethylamino)ethyl)-6-fluoro-2,3,4,9-tetrahydro-2,4,9,10-tetraazacyclohepta[def]fluoren-8(1H)-one], the EC50 is reported as 42 nM. `CC(C)(C)OC(=O)N[C@@H](Cc1ccccc1)C(=O)N1CC2=NNC(=O)c3cccc4[nH]c(c2c34)C1` [Compound 63, (S)-tert-butyl (1-oxo-1-(8-oxo-8,9-dihydro-2,4,9,10-tetraazacyclohepta[def]fluoren-2(1H,3H,4H)-yl)-3-phenylpropan-2-yl)carbamate] showed an EC50 of 235 nM. Compound `CC1(C)CC2=NNC(=O)c3cccc4c3c2c(n4CCO)C1` [Compound 67, 10-(2-hydroxyethyl)-2,2-dimethyl-2,3,5,10-tetrahydro-[1,2]diazepino[3,4,5,6-def]carbazol-6(1H)-one] has an EC50 of 247 nM. `C[C@]12CCCN1CC1=NNC(=O)c3cc(F)cc4[nH]c2c1c34` [Compound 69] gave an EC50 of 0.6 nM.

From patent US10501467B2, “Fused tetra or penta-cyclic dihydrodiazepinocarbazolones as PARP inhibitors” (BeiGene, Ltd., priority 2011, dated 2019)
